Legend:
[1] = tested on: MCF-7; test: MTT cell viability assay, MCF-7 cells; assay type: cell-based; details: Homo sapiens, MCF7, 48 h treatment, ± SD, two experiments, 8 replicates
[2] = tested on: HeLa; test: MTT cell viability assay, HeLa cells; assay type: cell-based; details: Homo sapiens, 48 h treatment, ± SD, two experiments, 8 replicates
[3] = tested on: Jurkat cells; test: Flow cytometric annexin-V/propidium iodide apoptosis assay; assay type: cell-based, human; details: 5 μM, 36 h
Description: Since many clinically used anticancer agents induce apoptosis in cancer cells, we tested the pyranopyridone analogues for their ability to induce apoptosis in Jurkat (model for human T-cell leukemia) cells using the flow cytometric annexin-V/propidium iodide assay (FIG. 1).
FIG. 1 illustrates induction of apoptosis in Jurkat cells treated for 36 h with DMSO control, colchicine (5 μM) and selected pyridone library analogues (5 μM) in the flow cytometric annexin-V/propidium iodide assay. Error bars represent data

[4] = tested on: Jurkat cells; test: DNA laddering assay; assay type: cell-based, human; details: 36 h, 1.5% agarose gel
Description: Since endonuclease-mediated cleavage of nuclear DNA resulting in formation of oligonucleosomal DNA fragments (180-200 base pairs long) is a hallmark of apoptosis in many cell types, apoptosis was further investigated with the DNA laddering assay (FIG. 2). Jurkat cells were treated with DMSO (lane A), analogues 40 and 41 (lanes B and C), and paclitaxel (lane D) for 36 h. After that the cellular DNA was isolated and electrophoresed in a 1.5% agarose gel. […] No laddering was observed when the cells were treated with DMSO control.
FIG. 2 illustrates DNA laddering in Jurkat cells after 36 h of treatment. (A) DMSO control, (B) 40 at 1.5 μM, (C) 41 at 1.5 μM, (D) paclitaxel at 0.4 μM, and (E) Molecular weight marker (KB).

[5] = tested on: Jurkat cells; test: Flow cytometric cell cycle analysis (Vybrant Orange staining); assay type: cell-based, human; details: for cell cycle arrest: Jurkat cell line, flow cytometric cell cycle analysis; for % relative DNA content G0/G1 / % relative DNA content G2/M / % relative DNA content S: Jurkat, 1 μM, 24 h, ± SD
Excerpt: Our libraries of compounds exert their antiproliferative properties through inhibition of tubulin dynamics, thereby inducing mitotic arrest and initiating apoptosis in cancer cells. […] This effect is characteristic of antimitotic agents disrupting microtubule assembly.

[6] = tested on: tubulin; test: In vitro tubulin polymerization (fluorescence); assay type: biochemical; details: relative to 0.05% DMSO control
Excerpt: To obtain further support for the proposed antitubulin mechanism of action for our heterocycles, we assessed the effect of pyranoquinolones on in vitro tubulin polymerization. In this assay microtubule formation is monitored by the increase in fluorescence intensity of the reaction mixture.
FIG. 4 illustrates the effect of our compounds on in vitro tubulin polymerization.

[7] = tested on: Jurkat cells; test: Light microscopy of morphological changes; assay type: cell-based, human; details: 1 μM, 2 h
Description: Morphological changes of cells treated with potent analogues can be visually observed with light microscopy (FIG. 3).
FIG. 3 illustrates light microscopy pictures. Treatment of Jurkat cells with 40 (C) and 41 (D) for 2 hours induces formation of finger-like extensions (black arrows) and shriveling (white arrows). 0.1% DMSO (A) and a known anticancer agent (B) were used as controls. All compounds are used at 1 μM. The scale bar indicates 40 μm.

## Cn1c(=O)c2c(c3ccccc31)OC(N)=C(C#N)C2c1cncc(Br)c1 (stereo not shown) [Compound 3, 2-Amino-4-(5-bromo-3-pyridinyl)-6-methyl-5-oxo-5,6-dihydro-4H-pyrano[3,2-c]quinoline-3-carbonitrile]
[1]
  GI50: 15 ± 8 nM
[2]
  GI50: 13 ± 3 nM

## COc1cc(C2C(C#N)=C(N)Oc3c2c(=O)n(C)c2ccccc32)cc(Br)c1OC(C)=O (stereo not shown) [Compound 4, 4-(2-Amino-3-cyano-6-methyl-5-oxo-5,6-dihydro-4H-pyrano[3,2-c]quinolin-4-yl)-2-bromo-6-methoxyphenyl acetate]
[1]
  GI50: 25 ± 60 nM
[2]
  GI50: 180 ± 20 nM

## Cc1cc2c(c(=O)n1C)C(c1ccc(N(C)C)c(Br)c1)C(C#N)=C(N)O2 (stereo not shown) [Compound 8, 2-Amino-4-[3-bromo-4-(dimethylamino)phenyl]-6,7-dimethyl-5-oxo-5,6-dihydro-4H-pyrano[3,2-c]pyridine-3-carbonitrile]
[2]
  GI50: 330 ± 60 nM

## COc1cc(C2C(C#N)=C(N)Oc3cc(C)n(C)c(=O)c32)cc(Br)c1OC (stereo not shown) [Compound 9, 2-Amino-4-(3-bromo-4,5-dimethoxyphenyl)-6,7-dimethyl-5-oxo-5,6-dihydro-4H-pyrano[3,2-c]pyridine-3-carbonitrile]
[2]
  GI50: 580 ± 140 nM

## CCOc1c(Br)cc(C2C(C#N)=C(N)Oc3cc(C)n(C)c(=O)c32)cc1OC (stereo not shown) [Compound 10, 2-Amino-4-(3-bromo-4-ethoxy-5-methoxyphenyl)-6,7-dimethyl-5-oxo-5,6-dihydro-4H-pyrano[3,2-c]pyridine-3-carbonitrile]
[2]
  GI50: 1100 ± 800 nM

## COc1cc(C2C(C#N)=C(N)Oc3cc(C)n(C)c(=O)c32)cc(Br)c1O (stereo not shown) [Compound 11, 2-Amino-4-(3-bromo-4-hydroxy-5-methoxyphenyl)-6,7-dimethyl-5-oxo-5,6-dihydro-4H-pyrano[3,2-c]pyridine-3-carbonitrile]
[2]
  GI50: 2700 ± 1100 nM

## COc1cc(C2C(C#N)=C(N)Oc3cc(C)n(C)c(=O)c32)cc(Br)c1OC(C)=O (stereo not shown) [Compound 12, 4-(2-Amino-3-cyano-6,7-dimethyl-5-oxo-5,6-dihydro-4H-pyrano[3,2-c]pyridin-4-yl)-2-bromo-6-methoxyphenyl acetate]
[2]
  GI50: 3500 ± 1300 nM

## Cc1cc2c(c(=O)n1C)C(c1ccc(F)c(Br)c1)C(C#N)=C(N)O2 (stereo not shown) [Compound 13, 2-Amino-4-(3-bromo-4-fluorophenyl)-6,7-dimethyl-5-oxo-5,6-dihydro-4H-pyrano[3,2-c]pyridine-3-carbonitrile]
[2]
  GI50: 6400 ± 1100 nM

## Cc1cc2c(c(=O)n1C)C(c1cccc(Br)c1)C(C#N)=C(N)O2 (stereo not shown) [Compound 14, 2-Amino-4-(3-bromophenyl)-6,7-dimethyl-5-oxo-5,6-dihydro-4H-pyrano[3,2-c]pyridine-3-carbonitrile]
[2]
  GI50: 6500 ± 1300 nM

## Cc1cc2c(c(=O)n1C)C(c1ccc(Cl)c(Cl)c1)C(C#N)=C(N)O2 (stereo not shown) [Compound 15, 2-Amino-4-(3,4-dichlorophenyl)-6,7-dimethyl-5-oxo-5,6-dihydro-4H-pyrano[3,2-c]pyridine-3-carbonitrile]
[2]
  GI50: 18300 ± 2900 nM
[3]
  induction of apoptosis in Jurkat cells: do not induce apoptosis

## Cc1cc2c(c(=O)n1C)C(c1ccc(C(C)C)cc1)C(C#N)=C(N)O2 (stereo not shown) [Compound 17, 2-Amino-4-(4-isopropylphenyl)-6,7-dimethyl-5-oxo-5,6-dihydro-4H-pyrano[3,2-c]pyridine-3-carbonitrile]
[2]
  GI50: > 100000 nM
[3]
  induction of apoptosis in Jurkat cells: do not induce apoptosis

## COc1ccc(CCn2c(C)cc3c(c2=O)C(c2cc(OC)c(OC)c(OC)c2)C(C#N)=C(N)O3)cc1OC (stereo not shown) [Compound 20, 2-Amino-6-(3,4-dimethoxyphenethyl)-7-methyl-5-oxo-4-(3,4,5-trimethoxyphenyl)-5,6-dihydro-4H-pyrano[3,2-c]pyridine-3-carbonitrile]
[2]
  GI50: 22700 ± 6400 nM
[3]
  induction of apoptosis in Jurkat cells: do not induce apoptosis

## COc1cc(C2C(C#N)=C(N)Oc3c2c(=O)n(C)c2ccccc32)cc(OC)c1OC (stereo not shown) [Compound 22, 2-Amino-6-methyl-5-oxo-4-(3,4,5-trimethoxyphenyl)-5,6-dihydro-4H-pyrano[3,2-c]quinoline-3-carbonitrile]
[1]
  GI50: 1000 ± 300 nM
[2]
  GI50: 240 ± 20 nM

## COc1cc(C2C(C#N)=C(N)Oc3c2c(=O)n(C)c2ccccc32)cc([N+](=O)[O-])c1O (stereo not shown) [Compound 25, 2-Amino-4-(4-hydroxy-3-methoxy-5-nitrophenyl)-6-methyl-5-oxo-5,6-dihydro-4H-pyrano[3,2-c]quinoline-3-carbonitrile]
[1]
  GI50: 710 ± 120 nM
[2]
  GI50: 630 ± 20 nM

## Cn1c(=O)c2c(c3ccccc31)OC(N)=C(C#N)C2c1cccc(Br)c1 (stereo not shown) [Compound 37, 2-Amino-4-(3-bromophenyl)-6-methyl-5-oxo-5,6-dihydro-4H-pyrano[3,2-c]quinoline-3-carbonitrile]
[1]
  GI50: 3 ± 1 nM
[2]
  GI50: 740 ± 30 nM

## Cn1c(=O)c2c(c3ccccc31)OC(N)=C(C#N)C2c1ccc(F)c(Br)c1 (stereo not shown) [Compound 38, 2-Amino-4-(3-bromo-4-fluorophenyl)-6-methyl-5-oxo-5,6-dihydro-4H-pyrano[3,2-c]quinoline-3-carbonitrile]
[1]
  GI50: 810 ± 80 nM
[2]
  GI50: 270 ± 30 nM

## Cn1c(=O)c2c(c3ccccc31)OC(N)=C(C#N)C2c1cc(Br)c(O)c(Br)c1 (stereo not shown) [Compound 39, 2-Amino-4-(3,5-dibromo-4-hydroxyphenyl)-6-methyl-5-oxo-5,6-dihydro-4H-pyrano[3,2-c]quinoline-3-carbonitrile]
[1]
  GI50: 430 ± 10 nM
[2]
  GI50: 270 ± 20 nM

## COc1cc(C2C(C#N)=C(N)Oc3c2c(=O)n(C)c2ccccc32)cc(Br)c1O (stereo not shown) [Compound 40, 2-Amino-4-(3-bromo-4-hydroxy-5-methoxyphenyl)-6-methyl-5-oxo-5,6-dihydro-4H-pyrano[3,2-c]quinoline-3-carbonitrile]
[1]
  GI50: 390 ± 160 nM
[4]; 1.5 μM
  DNA laddering in Jurkat cells: characteristic ladder pattern was obtained
[5]
  cell cycle arrest: pronounced cell cycle arrest in the G2/M phase
  % relative DNA content G0/G1: 27 ± 3%
  % relative DNA content G2/M: 47 ± 3%
  % relative DNA content S: 22 ± 2%
[2]
  GI50: 47 ± 10 nM
[6]; 25 μM
  effect on in vitro tubulin polymerization: completely suppress tubulin polymerization
[7]
  morphological (phenotypic) changes of Jurkat cells: formation of finger-like extensions and shriveling

## COc1cc(C2C(C#N)=C(N)Oc3c2c(=O)n(C)c2ccccc32)cc(Br)c1OC (stereo not shown) [Compound 41, 2-Amino-4-(3-bromo-4,5-dimethoxyphenyl)-6-methyl-5-oxo-5,6-dihydro-4H-pyrano[3,2-c]quinoline-3-carbonitrile]
[1]
  GI50: 380 ± 30 nM
[4]; 1.5 μM
  DNA laddering in Jurkat cells: characteristic ladder pattern was obtained
[5]
  cell cycle arrest: pronounced cell cycle arrest in the G2/M phase
  % relative DNA content G0/G1: 20 ± 2%
  % relative DNA content G2/M: 49 ± 2%
  % relative DNA content S: 28 ± 2%
[2]
  GI50: 14 ± 3 nM
[6]; 25 μM
  effect on in vitro tubulin polymerization: completely suppress tubulin polymerization
[7]
  morphological (phenotypic) changes of Jurkat cells: formation of finger-like extensions and shriveling

## Cn1c(=O)c2c(c3ccccc31)OC(N)=C(C#N)C2c1cc(Br)cc(Br)c1 (stereo not shown) [Compound 42, 2-Amino-4-(3,5-dibromophenyl)-6-methyl-5-oxo-5,6-dihydro-4H-pyrano[3,2-c]quinoline-3-carbonitrile]
[1]
  GI50: 75 ± 7 nM
[2]
  GI50: 77 ± 6 nM

## COc1ccc(C2C(C#N)=C(N)Oc3c2c(=O)n(C)c2ccccc32)cc1Br (stereo not shown) [Compound 43, 2-Amino-4-(3-bromo-4-methoxyphenyl)-6-methyl-5-oxo-5,6-dihydro-4H-pyrano[3,2-c]quinoline-3-carbonitrile]
[1]
  GI50: 500 ± 100 nM
[2]
  GI50: 410 ± 40 nM

## CC(=O)O[C@H]1C(=O)[C@@]2(C)[C@H]([C@H](OC(=O)c3ccccc3)[C@]3(O)C[C@H](OC(=O)[C@H](O)[C@@H](NC(=O)c4ccccc4)c4ccccc4)C(C)=C1C3(C)C)[C@]1(OC(C)=O)CO[C@@H]1C[C@@H]2O [paclitaxel, reference compound]
[4]; 0.4 μM
  DNA laddering in Jurkat cells: characteristic ladder pattern was obtained
[6]; 3 μM
  effect on in vitro tubulin polymerization: promotes microtubule formation

## COc1cc([C@@H]2c3cc4c(cc3[C@H](O)[C@H]3COC(=O)[C@H]23)OCO4)cc(OC)c1OC [podophyllotoxin, reference compound]
[6]; 25 μM
  effect on in vitro tubulin polymerization: completely suppress tubulin polymerization

From patent US8349864B2, “Pyrano [3,2-C] pyridones and related heterocyclic compounds as pharmaceutical agents for treating disorders responsive to apoptosis, antiproliferation or vascular disruption, and the use thereof” (New Mexico Technical Research Foundation, priority 2009, dated 2013)
